# Data: patent US20150274719A1, “AMINO-SUBSTITUTED IMIDAZO[1,2-A]PYRIDINECARBOXAMIDES AND THEIR USE” (BAYER PHARMA AKTIENGESELLSCHAFT, priority 2012, published 2015)
# Counter-ions that a name gives are not always drawn.
# Molecular target: T1, recombinant guanylate cyclase reporter cell line (Rattus norvegicus, UniProt P19686+P20595)
# T1 construct: expressed in transfected cells; host or cells: recombinant reporter cell line
# T1 sequence (P19686 1-690): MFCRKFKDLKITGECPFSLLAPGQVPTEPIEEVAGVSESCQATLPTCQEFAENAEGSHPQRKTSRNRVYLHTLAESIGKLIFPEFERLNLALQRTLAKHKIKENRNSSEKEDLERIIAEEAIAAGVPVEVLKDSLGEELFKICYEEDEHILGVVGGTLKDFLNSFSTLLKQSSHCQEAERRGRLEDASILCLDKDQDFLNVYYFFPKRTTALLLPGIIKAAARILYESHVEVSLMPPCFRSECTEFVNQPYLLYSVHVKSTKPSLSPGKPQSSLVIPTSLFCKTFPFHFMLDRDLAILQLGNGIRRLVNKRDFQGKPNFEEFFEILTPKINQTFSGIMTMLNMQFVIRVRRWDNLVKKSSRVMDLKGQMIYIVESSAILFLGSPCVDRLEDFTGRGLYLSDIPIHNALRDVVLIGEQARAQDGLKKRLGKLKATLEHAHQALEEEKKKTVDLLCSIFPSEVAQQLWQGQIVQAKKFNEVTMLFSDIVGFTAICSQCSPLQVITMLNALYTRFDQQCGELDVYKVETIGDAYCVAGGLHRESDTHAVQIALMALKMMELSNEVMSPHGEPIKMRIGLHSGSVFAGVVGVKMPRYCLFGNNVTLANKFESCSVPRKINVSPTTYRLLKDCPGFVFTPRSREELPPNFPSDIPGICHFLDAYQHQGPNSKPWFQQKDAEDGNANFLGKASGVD
# T1 sequence (P20595 1-619): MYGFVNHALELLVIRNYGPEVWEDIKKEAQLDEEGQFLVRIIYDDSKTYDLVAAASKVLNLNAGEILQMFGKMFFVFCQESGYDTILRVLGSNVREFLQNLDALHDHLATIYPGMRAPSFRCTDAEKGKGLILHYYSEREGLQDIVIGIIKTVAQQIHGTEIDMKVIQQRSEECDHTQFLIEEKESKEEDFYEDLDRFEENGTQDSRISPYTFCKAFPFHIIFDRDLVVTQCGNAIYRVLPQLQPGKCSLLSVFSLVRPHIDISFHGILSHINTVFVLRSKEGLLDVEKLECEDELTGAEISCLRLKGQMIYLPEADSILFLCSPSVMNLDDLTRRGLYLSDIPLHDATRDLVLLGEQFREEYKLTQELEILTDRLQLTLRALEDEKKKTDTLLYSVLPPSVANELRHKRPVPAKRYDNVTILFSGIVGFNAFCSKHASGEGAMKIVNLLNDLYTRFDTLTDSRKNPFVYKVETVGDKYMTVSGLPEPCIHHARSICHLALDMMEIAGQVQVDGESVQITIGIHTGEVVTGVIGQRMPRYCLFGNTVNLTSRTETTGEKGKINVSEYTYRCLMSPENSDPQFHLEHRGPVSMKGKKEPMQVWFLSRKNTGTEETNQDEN
# Test: Action on recombinant guanylate cyclase reporter cell line
# Type: cell-based
# Conditions: in some cases mean values from individual determinations
# Procedure, shortened: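 Each compound is applied to a cell line engineered with a reporter for recombinant guanylate cyclase. The minimal effective concentration is then noted, in part as a mean across separate determinations.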
row,MEC (minimal effective concentration) [µM],Compound
1,1.00,"Cc1nc2c(OCc3c(F)cccc3F)cccn2c1C(=O)NC(C)[C@@H](C)N (single isomer, unassigned) [Example 176]"
2,1.00,"Cc1nc2c(OCc3c(F)cccc3F)cccn2c1C(=O)NC(C)[C@@H](C)N (single isomer, unassigned) [Example 177]"
3,0.30,"Cc1nc2c(OCC3CCCCC3)cccn2c1C(=O)NC(CN)c1ccc(F)c(F)c1 (single isomer, unassigned) [Example 178, ent-N-[2-Amino-1-(3,4-difluorophenyl)ethyl]-8-(cyclohexylmethoxy)-2-methylimidazo[1,2-a]-pyridine-3-carboxamide]"
4,1.00,"Cc1nc2c(OCC3CCCCC3)cccn2c1C(=O)NC(CN)c1ccc(F)c(F)c1 (single isomer, unassigned) [Example 179, ent-N-[2-Amino-1-(3,4-difluorophenyl)ethyl]-8-(cyclohexylmethoxy)-2-methylimidazo[1,2-a]-pyridine-3-carboxamide]"
5,1.00,"Cc1nc2c(OCc3c(F)cccc3F)cccn2c1C(=O)NC12CNCCC1C2 (single isomer, unassigned) [Example 184, ent-N-(3-Azabicyclo[4.1.0]hept-1-yl)-8-[(2,6-difluorobenzyl)oxy]-2-methylimidazo[1,2-a]pyridine-3-carboxamide]"
6,1.00,"Cc1nc2c(OCc3c(F)cccc3F)cccn2c1C(=O)NC12CNCCC1C2 (single isomer, unassigned) [Example 185, ent-N-(3-Azabicyclo[4.1.0]hept-1-yl)-8-[(2,6-difluorobenzyl)oxy]-2-methylimidazo[1,2-a]pyridine-3-carboxamide]"
7,0.30,"Cc1nc2c(OCc3c(F)cccc3F)cc(Cl)cn2c1C(=O)NCC(N)CC(F)(F)F (single isomer, unassigned) [Example 192, ent-N-(2-Amino-4,4,4-trifluorobutyl)-6-chloro-8-[(2,6-difluorobenzyl)oxy]-2-methylimidazo[1,2-a]pyridine-3-carboxamide]"
8,1.00,"Cc1nc2c(OCc3c(F)cccc3F)cc(Cl)cn2c1C(=O)NCC(N)CC(F)(F)F (single isomer, unassigned) [Example 193, ent-N-(2-Amino-4,4,4-trifluorobutyl)-6-chloro-8-[(2,6-difluorobenzyl)oxy]-2-methylimidazo[1,2-a]pyridine-3-carboxamide]"
9,0.30,"CCC(C)(N)CNC(=O)c1c(C)nc2c(OCc3c(F)cccc3F)cc(Cl)cn12 (single isomer, unassigned) [Example 195, ent-N-(2-Amino-2-methylbutyl)-6-chloro-8-[(2,6-difluorobenzyl)oxy]-2-methylimidazo[1,2-a]-pyridine-3-carboxamide]"
10,1.00,"COCC(C)(N)CNC(=O)c1c(C)nc2c(OCc3c(F)cccc3F)cc(Cl)cn12 (single isomer, unassigned) [Example 196, ent-N-(2-Amino-3-methoxy-2-methylpropyl)-6-chloro-8-[(2,6-difluorobenzyl)oxy]-2-methylimidazo[1,2-a]pyridine-3-carboxamide]"
11,1.00,"COCC(C)(N)CNC(=O)c1c(C)nc2c(OCc3c(F)cccc3F)cc(Cl)cn12 (single isomer, unassigned) [Example 197, ent-N-(2-Amino-3-methoxy-2-methylpropyl)-6-chloro-8-[(2,6-difluorobenzyl)oxy]-2-methylimidazo[1,2-a]pyridine-3-carboxamide]"
12,0.30,"COCC(C)(N)CNC(=O)c1c(C)nc2c(OCc3c(F)cccc3F)cc(C)cn12 (single isomer, unassigned) [Example 198, ent-N-(2-Amino-3-methoxy-2-methylpropyl)-8-[(2,6-difluorobenzyl)oxy]-2,6-dimethylimidazo-[1,2-a]pyridine-3-carboxamide]"

# Second part, the molecule before the results:
row,Compound,MEC (minimal effective concentration) [µM]
1,"CCOCC(CN)NC(=O)c1c(C)nc2c(OCc3c(F)cccc3F)cc(Cl)cn12 (single isomer, unassigned) [Example 57, ent-N-(1-amino-3-ethoxypropan-2-yl)-6-chloro-8-[(2,6-difluorobenzyl)oxy]-2-methylimidazo[1,2-a]-pyridine-3-carboxamide]",0.30
2,"Cc1nc2c(OCc3c(F)cccc3F)cccn2c1C(=O)NC(CN)COC(C)C (single isomer, unassigned) [Example 93, ent-N-(1-Amino-3-isopropoxypropan-2-yl)-8-[(2,6-difluorobenzyl)oxy]-2-methylimidazo[1,2-a]-pyridine-3-carboxamide]",0.30
3,"Cc1nc2c(OCc3c(F)cccc3F)cccn2c1C(=O)NCC(C)CN (single isomer, unassigned) [Example 95, ent-N-(3-Amino-2-methylpropyl)-8-[(2,6-difluorobenzyl)oxy]-2-methylimidazo[1,2-a]pyridine-3-carboxamide dihydrochloride]",1.00
4,"Cc1nc2c(OCc3c(F)cccc3F)cccn2c1C(=O)NCC(C)CN (single isomer, unassigned) [Example 96, ent-N-(3-Amino-2-methylpropyl)-8-[(2,6-difluorobenzyl)oxy]-2-methylimidazo[1,2-a]pyridine-3-carboxamide dihydrochloride]",1.00
5,"COCC(CN)NC(=O)c1c(C)nc2c(OCc3c(F)cccc3F)cccn12 (single isomer, unassigned) [Example 122, ent-N-(1-Amino-3-methoxypropan-2-yl)-8-[(2,6-difluorobenzyl)oxy]-2-methylimidazo[1,2-a]-pyridine-3-carboxamide ditrifluoroacetate]",1.00
6,"COCC(CN)NC(=O)c1c(C)nc2c(OCc3c(F)cccc3F)cccn12 (single isomer, unassigned) [Example 123, ent-N-(1-Amino-3-methoxypropan-2-yl)-8-[(2,6-difluorobenzyl)oxy]-2-methylimidazo[1,2-a]-pyridine-3-carboxamide ditrifluoroacetate]",3.00
7,"Cc1nc2c(OCc3c(F)cccc3F)cccn2c1C(=O)NCC(N)CC(F)(F)F (single isomer, unassigned) [Example 126, ent-N-(2-Amino-4,4,4-trifluorobutyl)-8-[(2,6-difluorobenzyl)oxy]-2-methylimidazo[1,2-a]pyridine-3-carboxamide]",0.30
8,"Cc1nc2c(OCc3c(F)cccc3F)cccn2c1C(=O)NCC(N)CC(F)(F)F (single isomer, unassigned) [Example 127, ent-N-(2-Amino-4,4,4-trifluorobutyl)-8-[(2,6-difluorobenzyl)oxy]-2-methylimidazo[1,2-a]pyridine-3-carboxamide]",1.00
9,"Cc1cc(OCc2c(F)cccc2F)c2nc(C)c(C(=O)NCC(N)CC(F)(F)F)n2c1 (single isomer, unassigned) [Example 128, ent-N-(2-Amino-4,4,4-trifluorobutyl)-8-[(2,6-difluorobenzyl)oxy]-2,6-dimethylimidazo[1,2-a]-pyridine-3-carboxamide]",0.10
10,"Cc1cc(OCc2c(F)cccc2F)c2nc(C)c(C(=O)NCC(N)CC(F)(F)F)n2c1 (single isomer, unassigned) [Example 129, ent-N-(2-Amino-4,4,4-trifluorobutyl)-8-[(2,6-difluorobenzyl)oxy]-2,6-dimethylimidazo[1,2-a]-pyridine-3-carboxamide]",0.10
11,"Cc1nc2c(OCc3c(F)cccc3F)cccn2c1C(=O)NC(C)[C@H](C)N (single isomer, unassigned) [Example 174]",0.30
12,"Cc1nc2c(OCc3c(F)cccc3F)cccn2c1C(=O)NC(C)[C@H](C)N (single isomer, unassigned) [Example 175]",1.00
